Experimental data from patent US9833497B2, “Human originated EGF domain proteins and use of the same” (CHENGDU SOURCEBIO LIMITED-LIABILITY COMPANY, priority 2013, dated 2017).

Key:
Assay type in all cases: cell-based
[1] = tested on: Serratia marcescens; assay: MIC against Gram-negative bacteria: Serratia marcescens; settings: 10 h cultivation at 37° C.; for MIC against S. marcescens: Serratia marcescens; for MIC / MIC (μg/mL) S. marcescens: S. marcescens
In short: (§1)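 The recombinant human-originated EGF domain proteins were serially diluted two-fold against bacteria at 5×10^5 CFU/mL in LB medium. After shaken incubation at 37° C, the lowest concentration with no bacterial growth was recorded as the MIC.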

[2] = tested on: Aeromonas hydrophila; assay: MIC against Gram-negative bacteria: Aeromonas hydrophila; settings: 10 h cultivation at 37° C.; for MIC against A. hydrophila: Aeromonas hydrophila; for MIC / MIC (μg/mL) A. hydrophila: A. hydrophila
In short: as §1

[3] = tested on: Citrobacter diversus; assay: MIC against Gram-negative bacteria: Citrobacter diversus; settings: 10 h cultivation at 37° C.; for MIC against C. diversus: Citrobacter diversus; for MIC / MIC (μg/mL) C. diversus: C. diversus
In short: as §1

[4] = tested on: Klebsiella pneumonia; assay: MIC against Gram-negative bacteria: Klebsiella pneumonia; settings: 10 h cultivation at 37° C.; for MIC against K. pneumonia: Klebsiella pneumonia; for MIC / MIC (μg/mL) K. pneumonia: K. pneumonia
In short: as §1

[5] = tested on: Enterobacter cloacae; assay: MIC against Gram-negative bacteria: Enterobacter cloacae; settings: 10 h cultivation at 37° C.; for MIC against E. cloacae: Enterobacter cloacae; for MIC / MIC (μg/mL) E. cloacae: E. cloacae
In short: as §1

[6] = tested on: Proteus mirabilis; assay: MIC against Gram-negative bacteria: Proteus mirabilis; settings: 10 h cultivation at 37° C.; for MIC against P. mirabilis: Proteus mirabilis; for MIC / MIC (μg/mL) P. mirabilis: P. mirabilis
In short: as §1

[7] = tested on: Moraxella catarrhalis; assay: MIC against Gram-negative bacteria: Moraxella catarrhalis; settings: 10 h cultivation at 37° C.; for MIC against M. catarrhalis: Moraxella catarrhalis; for MIC / MIC (μg/mL) M. catarrhalis: M. catarrhalis
In short: as §1

[8] = tested on: Pseudomonas aeruginosa; assay: MIC against Gram-negative bacteria: Pseudomonas aeruginosa; settings: 10 h cultivation at 37° C.; for MIC against P. aeruginosa: Pseudomonas aeruginosa; for MIC / MIC (μg/mL) P. aeruginosa: P. aeruginosa
In short: as §1

[9] = tested on: E. coli BL21; assay: MIC against Gram-negative bacteria: E. coli BL21; settings: E. coli BL21, 10 h cultivation at 37° C.
In short: as §1

[10] = tested on: Proteus vulgaris; assay: MIC against Gram-negative bacteria: Proteus vulgaris; settings: 10 h cultivation at 37° C.; for MIC against P. vulgaris: Proteus vulgaris; for MIC / MIC (μg/mL) P. vulgaris: P. vulgaris
In short: as §1

[11] = tested on: E. coli DH5α; assay: Antibacterial activity: MIC and growth curve against E. coli DH5α in 96-well plate; settings: minimal inhibitory concentration against E. coli DH5α; 96-well plate, 5×10^5 CFU/mL, 37° C., judged after 8 h
In short: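 Log-phase bacteria (OD600 ~0.5) resuspended in LB at 5×10^5 CFU/mL, exposed to recombinant protein at 50, 25, 12.5 μg/mL final in triplicate, 37 °C shaking at 175 rpm. OD600 read every 30 min; MIC is lowest concentration showing no growth.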

Substance	MIC against S. marcescens ([1]; 5×10^5 CFU/mL)	MIC against A. hydrophila ([2]; 5×10^5 CFU/mL)	MIC against C. diversus ([3]; 5×10^5 CFU/mL)	MIC against K. pneumonia ([4]; 5×10^5 CFU/mL)	MIC against E. cloacae ([5]; 5×10^5 CFU/mL)	MIC against P. mirabilis ([6]; 5×10^5 CFU/mL)	MIC against M. catarrhalis ([7]; 5×10^5 CFU/mL)	MIC against P. aeruginosa ([8]; 5×10^5 CFU/mL)	MIC against E. coli BL21 ([9]; 5×10^5 CFU/mL)	MIC against P. vulgaris ([10]; 5×10^5 CFU/mL)	MIC [11]	MIC (μg/mL) S. marcescens ([1]; 5×10^5 CFU/mL)	MIC (μg/mL) A. hydrophila ([2]; 5×10^5 CFU/mL)	MIC (μg/mL) C. diversus ([3]; 5×10^5 CFU/mL)	MIC (μg/mL) K. pneumonia ([4]; 5×10^5 CFU/mL)	MIC (μg/mL) E. cloacae ([5]; 5×10^5 CFU/mL)	MIC (μg/mL) P. mirabilis ([6]; 5×10^5 CFU/mL)	MIC (μg/mL) M. catarrhalis ([7]; 5×10^5 CFU/mL)	MIC (μg/mL) P. aeruginosa ([8]; 5×10^5 CFU/mL)	MIC (μg/mL) E. coli BL21 ([9]; 5×10^5 CFU/mL)	other results
PRT1378 (AIQTCPGDCRGRGECHDGSCVCKDGYAGEDCG; listed as Homo sapiens)	25 µg/mL	12.5 µg/mL	25 µg/mL	25 µg/mL	12.5 µg/mL	25 µg/mL	12.5 µg/mL	12.5 µg/mL	25 µg/mL	12.5 µg/mL	50 µg/mL										
PRT1465 (CECDSLGTLPGTICDPISGQCLCVPNRQGRRCNQCQPGFYISPGNATGCLP; listed as Homo sapiens)	12.5 µg/mL	50 µg/mL	25 µg/mL	12.5 µg/mL	25 µg/mL	50 µg/mL	12.5 µg/mL	50 µg/mL	25 µg/mL	25 µg/mL	12.5 µg/mL										
PRT417 (DVNECQRYPGRLCGHKCENTLGSYLCSCSVGFRLSVDGRSCE; listed as Homo sapiens)											25 µg/mL										MIC ([1]; 5×10^5 CFU/mL): 12.5 µg/mL; MIC ([2]; 5×10^5 CFU/mL): 12.5 µg/mL; MIC ([3]; 5×10^5 CFU/mL): 25 µg/mL; MIC ([4]; 5×10^5 CFU/mL): 12.5 µg/mL; MIC ([5]; 5×10^5 CFU/mL): 25 µg/mL; MIC ([6]; 5×10^5 CFU/mL): 12.5 µg/mL; MIC ([7]; 5×10^5 CFU/mL): 12.5 µg/mL; MIC ([8]; 5×10^5 CFU/mL): 25 µg/mL; MIC ([9]; 5×10^5 CFU/mL): 50 µg/mL; MIC ([10]; 5×10^5 CFU/mL): 12.5 µg/mL
PRT1027 (PGNPCYDGSHMCDTTARCHPGTGVDYTCECASGYQGDGRNCV; listed as Homo sapiens)											12.5 µg/mL										MIC [1]: 50 µg/mL; MIC [2]: 12.5 µg/mL; MIC [3]: 50 µg/mL; MIC [4]: 25 µg/mL; MIC [5]: 50 µg/mL; MIC [6]: 50 µg/mL; MIC [7]: 12.5 µg/mL; MIC [8]: 12.5 µg/mL; MIC [9]: 25 µg/mL; MIC [10]: 12.5 µg/mL
PRT832 (DVDECAAGLAQCAHGCLNTQGSFKCVCHAGYELGADGRQCY; listed as Homo sapiens)											50 µg/mL	12.5 µg/mL	12.5 µg/mL	25 µg/mL	12.5 µg/mL	25 µg/mL	12.5 µg/mL	12.5 µg/mL	12.5 µg/mL	12.5 µg/mL	MIC (μg/mL) P. vulgaris ([10]; 5×10^5 CFU/mL): 25 µg/mL
PRT166 (NGSPCQHGGTCVDDEGRASHASCLCPPGFSGNFCE; listed as Homo sapiens)											12.5 µg/mL	50 µg/mL	12.5 µg/mL	12.5 µg/mL	25 µg/mL	12.5 µg/mL	12.5 µg/mL	12.5 µg/mL	12.5 µg/mL	25 µg/mL	MIC (μg/mL) P. vulgaris ([10]; 5×10^5 CFU/mL): 12.5 µg/mL
